Assay results: ChEMBL document CHEMBL4507292 (2021)

Key:
[1] = biological target: cAMP-dependent protein kinase catalytic subunit alpha (Homo sapiens) (UniProt P17612); conditions: Compound concentration 1000.0 nM
[2] = biological target: Serine/threonine-protein kinase DCLK3 (Homo sapiens) (UniProt Q9C098); conditions: Compound concentration 1000.0 nM
[3] = biological target: Calcium/calmodulin-dependent protein kinase type II subunit alpha (Homo sapiens) (UniProt Q9UQM7); conditions: Compound concentration 1000.0 nM
[4] = biological target: Microtubule-associated serine/threonine-protein kinase 1 (Homo sapiens) (UniProt Q9Y2H9); conditions: Compound concentration 1000.0 nM
[5] = biological target: Serine/threonine-protein kinase/endoribonuclease IRE1 (Homo sapiens) (UniProt O75460); conditions: Compound concentration 1000.0 nM
[6] = biological target: Ephrin type-A receptor 2 (Homo sapiens) (UniProt P29317); conditions: Compound concentration 1000.0 nM
[7] = biological target: Ribosomal protein S6 kinase alpha-4 (Homo sapiens) (UniProt O75676); conditions: Compound concentration 1000.0 nM
D(1B) dopamine receptor = D(1B) dopamine receptor (Homo sapiens, UniProt P21918); test: GPCRScan assay: inhibition of D5; parameters: radioligand conc. used [nm] 2.0 – 3.0, parental cells HEKT
[8] = biological target: Serine/threonine-protein kinase MAK (Homo sapiens) (UniProt P20794); conditions: Compound concentration 1000.0 nM
[9] = biological target: Mu-type opioid receptor (Homo sapiens) (UniProt P35372); conditions: Compound concentration 10.0 uM
[10] = biological target: Tyrosine-protein kinase JAK2 (Homo sapiens) (UniProt O60674); conditions: Compound concentration 1000.0 nM
[11] = biological target: Phosphatidylinositol 5-phosphate 4-kinase type-2 gamma (Homo sapiens) (UniProt Q8TBX8); conditions: Compound concentration 1000.0 nM
[12] = biological target: Serine/threonine-protein kinase BRSK2 (Homo sapiens) (UniProt Q8IWQ3); conditions: Compound concentration 1000.0 nM
[13] = biological target: Dual specificity protein kinase CLK4 (Homo sapiens) (UniProt Q9HAZ1); conditions: Compound concentration 1000.0 nM
[14] = biological target: Cyclin-dependent kinase 3 (Homo sapiens) (UniProt Q00526); conditions: Compound concentration 1000.0 nM
D(1A) dopamine receptor = D(1A) dopamine receptor (Homo sapiens, UniProt P21728); test: GPCRScan assay: inhibition of D1; parameters: radioligand conc. used [nm] 0.6 – 1.3, parental cells HEKT
[15] = test system: Tyrosine-protein kinase ABL1 (Homo sapiens), P00519 [T315I]; conditions: Compound concentration 1000.0 nM
[16] = biological target: Tyrosine-protein kinase FRK (Homo sapiens) (UniProt P42685); conditions: Compound concentration 1000.0 nM
[17] = biological target: Tyrosine-protein kinase HCK (Homo sapiens) (UniProt P08631); conditions: Compound concentration 1000.0 nM
[18] = biological target: TGF-beta receptor type-2 (Homo sapiens) (UniProt P37173); conditions: Compound concentration 1000.0 nM
[19] = biological target: Protein kinase C epsilon type (Homo sapiens) (UniProt Q02156); conditions: Compound concentration 1000.0 nM
[20] = biological target: Ephrin type-A receptor 1 (Homo sapiens) (UniProt P21709); conditions: Compound concentration 1000.0 nM
[21] = biological target: Transient receptor potential cation channel subfamily M member 6 (Homo sapiens) (UniProt Q9BX84); conditions: Compound concentration 1000.0 nM
[22] = test system: ALK tyrosine kinase receptor (Homo sapiens), Q9UM73 [C1156Y]; conditions: Compound concentration 1000.0 nM
[23] = biological target: Aurora kinase A (Homo sapiens) (UniProt O14965); conditions: Compound concentration 1000.0 nM
[24] = biological target: Serine/threonine-protein kinase TBK1 (Homo sapiens) (UniProt Q9UHD2); conditions: Compound concentration 1000.0 nM
[25] = biological target: Serine/threonine-protein kinase Chk2 (Homo sapiens) (UniProt O96017); conditions: Compound concentration 1000.0 nM
[26] = biological target: Muscarinic acetylcholine receptor M2 (Homo sapiens) (UniProt P08172); conditions: Compound concentration 10.0 uM
[27] = biological target: Tyrosine-protein kinase receptor UFO (Homo sapiens) (UniProt P30530); conditions: Compound concentration 1000.0 nM
[28] = biological target: Dual specificity tyrosine-phosphorylation-regulated kinase 1B (Homo sapiens) (UniProt Q9Y463); conditions: Compound concentration 1000.0 nM
[29] = biological target: Serine/threonine-protein kinase SIK2 (Homo sapiens) (UniProt Q9H0K1); conditions: Compound concentration 1000.0 nM
[30] = biological target: Dual specificity mitogen-activated protein kinase kinase 6 (Homo sapiens) (UniProt P52564); conditions: Compound concentration 1000.0 nM
[31] = biological target: Serine/threonine-protein kinase WNK1 (Homo sapiens) (UniProt Q9H4A3); conditions: Compound concentration 1000.0 nM
[32] = biological target: Inhibitor of nuclear factor kappa-B kinase subunit alpha (Homo sapiens) (UniProt O15111); conditions: Compound concentration 1000.0 nM
[33] = biological target: Phosphatidylinositol 3-kinase C2 domain-containing subunit gamma (Homo sapiens) (UniProt O75747); conditions: Compound concentration 1000.0 nM
[34] = biological target: Serine/threonine-protein kinase 36 (Homo sapiens) (UniProt Q9NRP7); conditions: Compound concentration 1000.0 nM
[35] = biological target: Tyrosine-protein kinase Fer (Homo sapiens) (UniProt P16591); conditions: Compound concentration 1000.0 nM
[36] = biological target: Atypical kinase COQ8B, mitochondrial (Homo sapiens) (UniProt Q96D53); conditions: Compound concentration 1000.0 nM
[37] = biological target: Receptor-type tyrosine-protein kinase FLT3 (Homo sapiens) (UniProt P36888); conditions: Compound concentration 1000.0 nM
[38] = biological target: 5-hydroxytryptamine receptor 5A (Homo sapiens) (UniProt P47898); conditions: Compound concentration 10.0 uM
[39] = biological target: Casein kinase I isoform alpha (Homo sapiens) (UniProt P48729); conditions: Compound concentration 1000.0 nM

Sequence of Aurora kinase A (Homo sapiens) (O14965 whole entry): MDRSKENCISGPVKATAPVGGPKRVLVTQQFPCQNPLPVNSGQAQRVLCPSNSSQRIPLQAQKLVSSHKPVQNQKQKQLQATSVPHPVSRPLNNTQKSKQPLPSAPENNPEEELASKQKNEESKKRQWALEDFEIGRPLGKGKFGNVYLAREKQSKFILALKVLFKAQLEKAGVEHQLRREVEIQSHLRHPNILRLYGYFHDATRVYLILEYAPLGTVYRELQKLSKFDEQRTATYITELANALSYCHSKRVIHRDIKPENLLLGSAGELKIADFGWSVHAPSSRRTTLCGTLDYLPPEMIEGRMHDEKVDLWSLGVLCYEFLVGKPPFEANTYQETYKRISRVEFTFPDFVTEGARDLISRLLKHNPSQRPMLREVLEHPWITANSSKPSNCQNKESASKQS
Sequence of Serine/threonine-protein kinase WNK1 (Homo sapiens) (Q9H4A3 whole entry, looked up): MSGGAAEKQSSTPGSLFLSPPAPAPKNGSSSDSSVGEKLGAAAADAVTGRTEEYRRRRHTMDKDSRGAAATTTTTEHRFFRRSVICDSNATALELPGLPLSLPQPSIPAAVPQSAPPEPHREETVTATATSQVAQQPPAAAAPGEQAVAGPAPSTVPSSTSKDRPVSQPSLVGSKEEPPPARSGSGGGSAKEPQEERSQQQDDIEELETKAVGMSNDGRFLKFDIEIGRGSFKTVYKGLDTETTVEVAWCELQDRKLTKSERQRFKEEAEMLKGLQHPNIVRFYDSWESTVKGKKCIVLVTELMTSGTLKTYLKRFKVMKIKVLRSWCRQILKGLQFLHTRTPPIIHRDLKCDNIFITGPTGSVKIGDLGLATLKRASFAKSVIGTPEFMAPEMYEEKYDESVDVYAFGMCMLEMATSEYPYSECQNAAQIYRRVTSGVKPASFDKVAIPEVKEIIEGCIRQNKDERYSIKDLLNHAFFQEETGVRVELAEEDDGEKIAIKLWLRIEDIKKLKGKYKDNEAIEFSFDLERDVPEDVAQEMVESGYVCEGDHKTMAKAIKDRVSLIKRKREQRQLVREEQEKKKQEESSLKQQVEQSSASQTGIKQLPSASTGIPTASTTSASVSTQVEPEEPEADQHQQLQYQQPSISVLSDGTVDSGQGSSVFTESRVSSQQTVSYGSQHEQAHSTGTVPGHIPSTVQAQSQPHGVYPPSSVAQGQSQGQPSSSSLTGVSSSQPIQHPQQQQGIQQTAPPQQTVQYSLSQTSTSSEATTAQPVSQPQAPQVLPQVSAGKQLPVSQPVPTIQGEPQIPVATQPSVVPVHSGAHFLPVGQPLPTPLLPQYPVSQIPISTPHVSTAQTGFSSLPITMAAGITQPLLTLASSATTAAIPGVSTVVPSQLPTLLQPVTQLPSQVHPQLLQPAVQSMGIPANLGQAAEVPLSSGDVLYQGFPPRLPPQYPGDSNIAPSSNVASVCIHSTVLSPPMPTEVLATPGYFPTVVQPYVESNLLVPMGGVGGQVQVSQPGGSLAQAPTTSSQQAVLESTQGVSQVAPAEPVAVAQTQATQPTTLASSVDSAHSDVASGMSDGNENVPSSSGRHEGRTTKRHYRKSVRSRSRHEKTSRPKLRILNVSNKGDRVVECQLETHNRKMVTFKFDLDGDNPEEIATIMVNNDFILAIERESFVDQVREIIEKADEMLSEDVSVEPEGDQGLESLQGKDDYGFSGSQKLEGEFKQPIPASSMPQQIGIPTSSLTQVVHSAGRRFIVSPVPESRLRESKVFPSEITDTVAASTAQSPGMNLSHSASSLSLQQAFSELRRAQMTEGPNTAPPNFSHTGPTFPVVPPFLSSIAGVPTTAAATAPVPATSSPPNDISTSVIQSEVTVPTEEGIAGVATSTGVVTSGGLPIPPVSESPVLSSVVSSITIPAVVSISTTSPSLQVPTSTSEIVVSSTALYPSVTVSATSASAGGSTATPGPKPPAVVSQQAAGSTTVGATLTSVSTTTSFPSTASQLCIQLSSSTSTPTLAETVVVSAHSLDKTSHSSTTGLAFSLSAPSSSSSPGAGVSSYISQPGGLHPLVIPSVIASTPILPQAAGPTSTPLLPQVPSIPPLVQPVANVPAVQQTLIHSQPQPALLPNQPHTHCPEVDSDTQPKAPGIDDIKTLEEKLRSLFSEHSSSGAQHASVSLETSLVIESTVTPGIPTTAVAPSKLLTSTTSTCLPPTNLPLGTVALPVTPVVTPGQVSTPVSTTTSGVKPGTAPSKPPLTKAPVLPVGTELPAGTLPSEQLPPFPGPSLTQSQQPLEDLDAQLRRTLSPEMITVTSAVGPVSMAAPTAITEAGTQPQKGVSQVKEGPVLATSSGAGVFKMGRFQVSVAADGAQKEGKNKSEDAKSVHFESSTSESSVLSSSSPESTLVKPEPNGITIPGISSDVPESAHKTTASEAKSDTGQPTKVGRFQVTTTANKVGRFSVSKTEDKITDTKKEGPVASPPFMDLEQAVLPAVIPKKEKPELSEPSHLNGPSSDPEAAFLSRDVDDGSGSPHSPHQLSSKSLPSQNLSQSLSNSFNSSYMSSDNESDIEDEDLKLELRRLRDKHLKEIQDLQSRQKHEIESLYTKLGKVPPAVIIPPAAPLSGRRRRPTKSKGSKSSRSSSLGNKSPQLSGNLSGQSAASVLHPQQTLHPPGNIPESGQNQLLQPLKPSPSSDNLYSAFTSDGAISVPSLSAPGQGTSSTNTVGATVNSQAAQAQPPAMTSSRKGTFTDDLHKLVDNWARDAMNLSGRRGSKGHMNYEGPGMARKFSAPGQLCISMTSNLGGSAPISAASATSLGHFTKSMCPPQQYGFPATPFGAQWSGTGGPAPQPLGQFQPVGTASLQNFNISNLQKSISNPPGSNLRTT
Sequence of Inhibitor of nuclear factor kappa-B kinase subunit alpha (Homo sapiens) (O15111 whole entry, the tested form may be a part): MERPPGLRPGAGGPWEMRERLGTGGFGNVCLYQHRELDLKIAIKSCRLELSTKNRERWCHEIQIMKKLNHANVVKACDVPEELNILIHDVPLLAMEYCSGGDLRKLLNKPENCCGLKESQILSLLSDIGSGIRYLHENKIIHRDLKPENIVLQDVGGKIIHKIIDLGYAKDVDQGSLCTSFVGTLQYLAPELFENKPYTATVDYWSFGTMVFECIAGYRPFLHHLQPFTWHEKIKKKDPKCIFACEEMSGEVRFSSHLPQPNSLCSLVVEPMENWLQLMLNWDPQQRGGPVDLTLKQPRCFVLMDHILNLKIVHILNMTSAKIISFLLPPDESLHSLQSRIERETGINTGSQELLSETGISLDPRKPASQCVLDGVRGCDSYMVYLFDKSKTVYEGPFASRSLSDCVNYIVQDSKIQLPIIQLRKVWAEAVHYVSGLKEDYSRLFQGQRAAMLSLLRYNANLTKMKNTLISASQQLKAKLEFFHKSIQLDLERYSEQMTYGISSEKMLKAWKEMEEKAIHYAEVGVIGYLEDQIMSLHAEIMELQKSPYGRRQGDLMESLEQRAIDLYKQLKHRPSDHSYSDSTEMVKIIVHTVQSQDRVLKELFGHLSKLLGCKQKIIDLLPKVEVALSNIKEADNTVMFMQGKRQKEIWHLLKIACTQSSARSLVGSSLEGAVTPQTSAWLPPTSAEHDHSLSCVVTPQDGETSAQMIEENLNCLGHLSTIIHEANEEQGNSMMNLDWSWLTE
Sequence of Dual specificity tyrosine-phosphorylation-regulated kinase 1B (Homo sapiens) (Q9Y463 whole entry, looked up): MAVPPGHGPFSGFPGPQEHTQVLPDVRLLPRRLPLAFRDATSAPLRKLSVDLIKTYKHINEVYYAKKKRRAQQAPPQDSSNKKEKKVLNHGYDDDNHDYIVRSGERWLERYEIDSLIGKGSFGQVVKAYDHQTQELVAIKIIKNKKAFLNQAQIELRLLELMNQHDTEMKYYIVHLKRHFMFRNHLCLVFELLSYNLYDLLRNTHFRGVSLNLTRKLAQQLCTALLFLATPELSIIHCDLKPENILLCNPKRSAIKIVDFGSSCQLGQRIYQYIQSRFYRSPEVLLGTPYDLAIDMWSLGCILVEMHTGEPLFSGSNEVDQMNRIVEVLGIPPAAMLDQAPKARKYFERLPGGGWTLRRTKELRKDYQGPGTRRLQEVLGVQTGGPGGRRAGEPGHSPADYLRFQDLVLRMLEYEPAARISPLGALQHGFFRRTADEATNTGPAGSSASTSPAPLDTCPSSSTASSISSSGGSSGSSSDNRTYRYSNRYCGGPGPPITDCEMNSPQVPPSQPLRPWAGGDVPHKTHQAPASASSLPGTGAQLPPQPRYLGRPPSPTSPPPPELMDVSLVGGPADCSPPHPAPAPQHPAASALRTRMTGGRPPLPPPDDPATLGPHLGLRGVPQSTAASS
Sequence of Serine/threonine-protein kinase/endoribonuclease IRE1 (Homo sapiens) (O75460 19-977 limits assumed): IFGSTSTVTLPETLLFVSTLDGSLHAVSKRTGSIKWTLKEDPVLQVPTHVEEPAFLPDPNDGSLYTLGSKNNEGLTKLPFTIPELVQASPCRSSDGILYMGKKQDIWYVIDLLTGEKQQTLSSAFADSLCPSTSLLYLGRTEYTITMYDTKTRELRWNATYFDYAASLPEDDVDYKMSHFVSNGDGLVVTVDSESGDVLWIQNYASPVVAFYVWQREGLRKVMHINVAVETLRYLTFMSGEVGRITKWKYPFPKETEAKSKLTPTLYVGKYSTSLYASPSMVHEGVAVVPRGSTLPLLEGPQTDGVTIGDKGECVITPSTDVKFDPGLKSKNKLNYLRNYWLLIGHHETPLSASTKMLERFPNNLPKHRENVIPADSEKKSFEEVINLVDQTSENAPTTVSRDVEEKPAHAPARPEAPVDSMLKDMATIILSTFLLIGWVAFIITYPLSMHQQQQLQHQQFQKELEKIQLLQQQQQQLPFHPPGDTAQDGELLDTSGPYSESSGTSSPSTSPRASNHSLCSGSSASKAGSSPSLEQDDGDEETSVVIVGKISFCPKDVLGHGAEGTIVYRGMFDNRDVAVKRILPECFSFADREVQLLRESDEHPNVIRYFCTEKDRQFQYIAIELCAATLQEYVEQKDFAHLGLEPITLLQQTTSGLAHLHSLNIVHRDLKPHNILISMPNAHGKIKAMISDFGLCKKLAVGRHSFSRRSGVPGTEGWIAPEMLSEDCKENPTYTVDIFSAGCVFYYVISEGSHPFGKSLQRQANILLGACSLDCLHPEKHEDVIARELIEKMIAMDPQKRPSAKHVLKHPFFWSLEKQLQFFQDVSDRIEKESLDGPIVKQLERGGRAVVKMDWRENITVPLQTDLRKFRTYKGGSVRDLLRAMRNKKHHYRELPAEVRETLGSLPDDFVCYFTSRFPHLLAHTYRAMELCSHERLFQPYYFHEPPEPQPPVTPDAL

Cc1c(C(=O)O)cc(-c2ccc(C3CCNCC3)cc2)c2ccc(-c3ccc(C(F)(F)F)cc3)cc12 [PPTN-NC]
residual activity [1]: 100%
residual activity [2]: 100%
residual activity [3]: 100%
residual activity [4]: 100%
residual activity [5]: 100%
residual activity [6]: 100%
residual activity [7]: 100%
Ki (D(1B) dopamine receptor): 2.86 µM
residual activity [8]: 91%
inhibition [9]: 12.6%
residual activity [10]: 100%
residual activity [11]: 100%
residual activity [12]: 100%
residual activity [13]: 100%
residual activity [14]: 100%
Ki (D(1A) dopamine receptor): 2.15 µM
residual activity [15]: 100%
residual activity [16]: 100%
residual activity [17]: 100%
residual activity [18]: 100%
residual activity [19]: 100%
residual activity [20]: 83%
residual activity [21]: 100%
residual activity [22]: 100%
residual activity [23]: 100%
residual activity [24]: 73%
residual activity [25]: 100%
inhibition [26]: 19.3%
residual activity [27]: 100%
residual activity [28]: 74%
residual activity [29]: 100%
residual activity [30]: 100%
residual activity [31]: 100%
residual activity [32]: 98%
residual activity [33]: 100%
residual activity [34]: 86%
residual activity [35]: 100%
residual activity [36]: 100%
residual activity [37]: 100%
inhibition [38]: -0.81%
residual activity [39]: 81%

O=C(O)c1cc(-c2ccc(C3CCNCC3)cc2)c2ccc(-c3ccc(C(F)(F)F)cc3)cc2c1 [PPTN]
residual activity [1]: 100%
residual activity [2]: 100%
residual activity [3]: 100%
residual activity [4]: 100%
residual activity [5]: 100%
residual activity [6]: 100%
residual activity [7]: 100%
Ki (D(1B) dopamine receptor): 2.82 µM
residual activity [8]: 100%
inhibition [9]: 19.3%
residual activity [10]: 100%
residual activity [11]: 100%
residual activity [12]: 100%
residual activity [13]: 100%
residual activity [14]: 100%
Ki (D(1A) dopamine receptor): 10 µM
residual activity [15]: 100%
residual activity [16]: 100%
residual activity [17]: 100%
residual activity [18]: 100%
residual activity [19]: 100%
residual activity [20]: 100%
residual activity [21]: 100%
residual activity [22]: 100%
residual activity [23]: 100%
residual activity [24]: 80%
residual activity [25]: 100%
inhibition [26]: 10.9%
residual activity [27]: 100%
residual activity [28]: 88%
residual activity [29]: 100%
residual activity [30]: 100%
residual activity [31]: 100%
residual activity [32]: 87%
residual activity [33]: 100%
residual activity [34]: 100%
residual activity [35]: 100%
residual activity [36]: 100%
residual activity [37]: 100%
inhibition [38]: 4.98%
residual activity [39]: 83%
